From patent US11440905B2, “Biheterocyclic compound” (SUMITOMO PHARMA CO., LTD., priority 2016, dated 2022) come the findings set out here.

SMILES strings stand for the structures. Where a name gives a salt, the structure may show the parent alone. A value given as a limit tells only on which side of the number the result lay.

For test [1], the target named is T1, mouse semaphorin 3A (Sema3A) (Mus musculus, UniProt O08665).
T1 sequence (O08665 21-772): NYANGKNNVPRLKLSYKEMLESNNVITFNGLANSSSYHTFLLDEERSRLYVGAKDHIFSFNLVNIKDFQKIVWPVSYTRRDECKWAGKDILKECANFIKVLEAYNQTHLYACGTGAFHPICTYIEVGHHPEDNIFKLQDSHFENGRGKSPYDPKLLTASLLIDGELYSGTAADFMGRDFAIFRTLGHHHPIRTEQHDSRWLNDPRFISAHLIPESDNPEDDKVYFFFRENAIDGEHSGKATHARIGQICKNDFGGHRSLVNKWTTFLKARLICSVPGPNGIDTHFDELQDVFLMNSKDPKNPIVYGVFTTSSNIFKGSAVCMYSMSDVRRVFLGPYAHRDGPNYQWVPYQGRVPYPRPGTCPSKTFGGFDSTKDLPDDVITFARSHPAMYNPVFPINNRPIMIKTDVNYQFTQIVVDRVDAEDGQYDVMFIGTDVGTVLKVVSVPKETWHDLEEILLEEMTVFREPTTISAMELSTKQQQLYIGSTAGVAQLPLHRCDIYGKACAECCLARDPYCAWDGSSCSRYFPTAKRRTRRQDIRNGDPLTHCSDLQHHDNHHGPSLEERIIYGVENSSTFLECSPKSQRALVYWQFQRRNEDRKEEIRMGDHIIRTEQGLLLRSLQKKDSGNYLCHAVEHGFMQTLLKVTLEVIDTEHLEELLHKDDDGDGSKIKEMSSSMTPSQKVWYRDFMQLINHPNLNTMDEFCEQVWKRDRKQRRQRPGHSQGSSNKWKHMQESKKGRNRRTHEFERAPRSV
Kind of test: Inhibitory activity for the collapse activity caused by Sema3A (growth cone collapse assay, Test 1). The settings on record: chick embryo dorsal root ganglion, 3 units/mL mouse Sema3A, smaller value = more potent inhibition, read-out: residual ratio (%) of Sema3A activity (collapse assay). The class given is cell-based. On the procedure:
Inhibitory Activity for the Collapse Activity Caused by Sema3A
96 well-plate (SUMITOMO BAKELITE CO., LTD.) which was beforehand coated with polylysine was further coated with laminin (10 μL laminin, at room temperature, for 1 hour). To each well was added 100 μL of a medium (F12 medium containing 10% fetal bovine serum, 20 ng/mL NGF, 100 unit/mL penicillin, and 100 μg/mL streptomycin). Dorsal root ganglion harvested from 7-8 day-old chick embryo was inoculated thereto, and the culture medium was cultivated under the condition of 5% CO2 and 37° C. for 16-20 hours. And then, each test compound in various concentrations was added to the medium, each test medium was cultivated for 30 minutes, 3 units/mL mouse semaphorin 3A (Sema3A) was added to each medium, and then each test medium was cultivated for more 30 minutes. Then, glutaraldehyde was added to the medium, in which the final concentration of glutaraldehyde was 1%. The medium was left to stand at room temperature for 15 minutes to make the tissue fragment fixed, and the ratio of the retracted growth cone was measured under a microscope.

Test [2] relates to dry eye-model rat associated with the dysfunction of corneal nerves. Kind of test: Drug evaluation for the dysfunction of corneal nerves in dry eye rat model (Test 4). The class given is in vivo. The settings on record: lacrimal gland excision plus streptozotocin 55 mg/kg i.p.; eye drop 1 μL per shot, 6 times per day, 4 weeks; 0.3% HA, 3% DQS, 0.1% Example 3. How it is done:
Drug Evaluation for the Dysfunction of Corneal Nerves in Dry Eye Rat Model
Male SD rat was anesthetized with inhalational isoflurane. The exorbital lacrimal gland thereof was excised, and at the same day, streptozotocin was administered intraperitoneally to the rat (55 mg/kg) to prepare a dry eye-model rat associated with the dysfunction of corneal nerves. Several weeks after the operation, 0.3% HA ophthalmic solution, 3% DQS ophthalmic solution, and 0.1% the ophthalmic solution of the present compound (Example 3) were administered to the rat in an awareness at 1 μL per shot, 6 times per day, for 4 weeks.
The cornea of the rat was softly held by hand. The drug effect for the dysfunction of corneal nerves was evaluated through blink reflex by contacting the cornea with the nylon filament of cochet-bonnet corneal esthesiometer. First, the tip of the nylon filament (length: 60 mm, diameter: 0.12 mm) was made to almost-vertically contact with the center of cornea, and the nylon filament was made to curve a little. […]
The statistical significance for the drug effect was evaluated by confirming that P value is less than 5% in Student's t test between the intact group and the PBS group, and then carrying out Student's t test between the intact group and the present compound group. […]

The subject of test [3] is dry eye-model rat (exorbital lacrimal gland excised). The experiment in a line: Drug evaluation for corneal disorder in dry eye-model rat (Test 3). The class given is in vivo. Particulars: eye drop 1 μL per shot, 6 times per day, 4 weeks. How it is done:
(Test 3) Drug Evaluation for Corneal Disorder in Dry Eye-Model Rat
A model rat whose exorbital lacrimal gland is excised is generally used as a model for evaluating the drug efficacy for corneal disorder caused by dry eye. As for corneal disorder of the rat, hyaluronic acid (HA) and diquafosol sodium (DQS) which are existing drugs, and the present compound (Example 3) were administered to the rat, and each efficacy thereof was evaluated.
Male SD rat was anesthetized with inhalational isoflurane, and the exorbital lacrimal gland thereof was excised to prepare a dry eye-model rat (the conditions to prepare the dry eye-model rat can be changed as necessary, for example, by combining the excision of exorbital lacrimal gland with the medication of streptozotocin or the like). […]
The site of corneal disorder was stained with a fluorescein (FITC) solution, and the extent of the disorder was evaluated with the score gained from the following method. […]
The statistical significance for the drug effect was evaluated by nonparametric Tukey's multiple comparison test, in which the result of each test group was compared with that of the control (intact) group which was not operated by excising exorbital lacrimal gland.

The target in test [4] is T2, mouse Sema3A binding to CHO cells stably-expressing mouse neuropilin (Mus musculus, UniProt O08665).
T2 construct: host or cells: CHO cells stably expressing the neuropilin partner
T2 sequence (O08665 21-772): T1 sequence (O08665 21-772)
Kind of test: Inhibitory activity for the neuropilin-binding activity caused by Sema3A (Test 2). Particulars: 1 h, AP-Sema3A, read-out: residual ratio (%) of avidity (Sema3A-neuropilin binding); for remaining activity at 100 µM: 100 μM test compound, smaller value = more potent binding inhibition. How it is done: (Test 2) Inhibitory Activity for the Neuropilin-Binding Activity Caused by Sema3A
To each well of 96 well-plate (IWAKI) was seeded CHO cells stably-expressing mouse neuropilin, the cells were cultivated in F12 medium (10% fetal bovine serum, 100 units/mL penicillin, and 100 μg/mL streptomycin) under the condition of 5% CO2 and 37° C. for 18 hours. And then, the culture medium was removed, and mouse Sema3A which included each test compound and alkaline phosphatase (AP) in various concentrations was added thereto, and the culture was reacted at room temperature for more one hour. Then, the reaction solution was removed, the residual cells were washed with HBSS solution (0.25% BSA) and dissolved in a solution (10 mM Tris including 1% Triton X-100) at 65° C. for one hour, and the AP activity thereof was measured.

Regarding `Cn1cc(-c2coc3cc(O)c(O)c(C(=O)OCc4cn(CC(=O)N[C@@H](CCC(=O)O)C(=O)O)nn4)c3c2=O)c(=O)c2cc(O)c(O)cc21` [Example 3, N-({4-[({[3-(6,7-Dihydroxy-1-methyl-4-oxo-1,4-dihydroquinolin-3-yl)-6,7-dihydroxy-4-oxo-4H-chromen-5-yl]carbonyl}oxy)methyl]-1H-1,2,3-triazol-1-yl}acetyl)-L-glutamic acid], the remaining activity at 1 µM in test [1] (1 μM test compound) is 4%. Also, in test [2], the “therapeutic effect for the dysfunction of corneal nerves (corneal perception, blink reflex, Cochet-Bonnet esthesiometer)” value is “marked therapeutic effect”. In addition, the “therapeutic effect for corneal disorder caused by dry eye (fluorescein staining score 0-3)” value in test [3] (0.3% HA, 3% DQS, Example 3 ophthalmic solution, compared with intact group) was “potent therapeutic effect”. Moreover, the “improvement of corneal disorder compared with the vehicle-administration group (PBS)” value in test [3] (** denotes p<0.01) is “significant improvement”.
`Cn1cc(-c2coc3cc(O)c(O)c(C(=O)OCCOCCC(=O)O)c3c2=O)c(=O)c2cc(O)c(O)cc21` [Example 20, 3-[2-({[3-(6,7-Dihydroxy-1-methyl-4-oxo-1,4-dihydroquinolin-3-yl)-6,7-dihydroxy-4-oxo-4H-chromen-5-yl]carbonyl}oxy)ethoxy]propanoic acid]: the remaining activity at 100 µM in test [4] came out at 56.5%.
Same read-out and setting: for `Cn1cc(-c2coc3cc(O)c(O)c(C(=O)OCCOCCC(=O)N[C@@H](CCC(=O)O)C(=O)O)c3c2=O)c(=O)c2cc(O)c(O)cc21` [Example 21, N-{3-[2-({[3-(6,7-Dihydroxy-1-methyl-4-oxo-1,4-dihydroquinolin-3-yl)-6,7-dihydroxy-4-oxo-4H-chromen-5-yl]carbonyl}oxy)ethoxy]propanoyl}-L-glutamic acid] the value was 58.5%.
Still for that read-out and setting: the same measure for `Cn1cc(-c2coc3cc(O)c(O)c(C(=O)OCCN(CC(=O)O)CC(=O)O)c3c2=O)c(=O)c2cc(O)c(O)cc21` [Example 22, 2,2′-{[2-({[3-(6,7-Dihydroxy-1-methyl-4-oxo-1,4-dihydroquinolin-3-yl)-6,7-dihydroxy-4-oxo-4H-chromen-5-yl]carbonyl}oxy)ethyl]imino}-di-acetic acid]: 62.1%; for `CN1CCN(C)C(COC(=O)c2c(O)c(O)cc3occ(-c4cn(C)c5cc(O)c(O)cc5c4=O)c(=O)c23)C1` (stereo not shown) [Example 25, (1,4-Dimethylpiperazin-2-yl)methyl 3-(6,7-dihydroxy-1-methyl-4-oxo-1,4-dihydroquinolin-3-yl)-6,7-dihydroxy-4-oxo-4H-chromene-5-carboxylate hydrochloride]: 90.5%.
On to `Cn1ccnc1COC(=O)c1c(O)c(O)cc2occ(-c3cn(C)c4cc(O)c(O)cc4c3=O)c(=O)c12` [Example 26, (1-Methyl-1H-imidazol-2-yl)methyl 3-(6,7-dihydroxy-1-methyl-4-oxo-1,4-dihydroquinolin-3-yl)-6,7-dihydroxy-4-oxo-4H-chromene-5-carboxylate hydrochloride], for which the remaining activity at 10 µM in test [4] (10 μM test compound (footnote *)) amounted to 97.8%.
Take `Cn1cc(-c2coc3cc(O)c(O)c(C(=O)OCCN4CCC(O)C4)c3c2=O)c(=O)c2cc(O)c(O)cc21` (stereo not shown) [Example 28, 2-(3-Hydroxypyrrolidin-1-yl)ethyl 3-(6,7-dihydroxy-1-methyl-4-oxo-1,4-dihydroquinolin-3-yl)-6,7-dihydroxy-4-oxo-4H-chromene-5-carboxylate]: the remaining activity at 100 µM in test [4] was 87.1%.
Turning to `Cn1cc(-c2coc3cc(O)c(O)c(C(=O)OCCOCCOCCOCCOCCO)c3c2=O)c(=O)c2cc(O)c(O)cc21` [Example 29, 14-Hydroxy-3,6,9,12-tetraoxatetradec-1-yl 3-(6,7-dihydroxy-1-methyl-4-oxo-1,4-dihydroquinolin-3-yl)-6,7-dihydroxy-4-oxo-4H-chromene-5-carboxylate], the remaining activity at 100 µM in test [4] was 49.3%.
For the compound `Cn1cc(-c2coc3cc(O)c(O)c(C(=O)OCC(N)=O)c3c2=O)c(=O)c2cc(O)c(O)cc21` [Example 30, 2-Amino-2-oxoethyl 3-(6,7-dihydroxy-1-methyl-4-oxo-1,4-dihydroquinolin-3-yl)-6,7-dihydroxy-4-oxo-4H-chromene-5-carboxylate], in test [1] (3 μM test compound), the remaining activity at 3 µM is less than 40%.
In the case of `COC(=O)CCOCCOC(=O)c1c(O)c(O)cc2occ(-c3cn(C)c4cc(O)c(O)cc4c3=O)c(=O)c12` [Example 31, 2-(3-Methoxy-3-oxopropoxy)ethyl 3-(6,7-dihydroxy-1-methyl-4-oxo-1,4-dihydroquinolin-3-yl)-6,7-dihydroxy-4-oxo-4H-chromene-5-carboxylate], the remaining activity at 100 µM in test [4] came to 69.4%.
